Read-outs that look alike come from different tables or passages of the source. Where a SMILES comes first, the peptide text is derived from it. Bridges are numbered along the chain shown (N, C = ends). [ ]: non-standard residue; d: D form. 2Nal = N[C@@H](Cc1ccc2ccccc2c1)C(=O)O; d2Nal = N[C@H](Cc1ccc2ccccc2c1)C(=O)O
What was measured:
GRP receptor = GRP receptor (Rattus norvegicus, UniProt P52500); experiment: Amylase release from rat pancreatic acini (alone or Bn-stimulated); assay type: cell-based; parameters: from tissue; host or cells: dispersed pancreatic acini; conditions: for Amylase Release, analog Alone (10 μM): analog 10 μM alone, control 4 ± 1; for Amylase Release, analog Plus Bn (0.3 nM): analog 10 μM plus Bn 0.3 nM, Bn without analog 15 ± 1; for IC50: read-out: IC50 Amylase Release, GRP Receptor, Rat Pancreatic Acini
GRP receptor, sequence (P52500 whole entry): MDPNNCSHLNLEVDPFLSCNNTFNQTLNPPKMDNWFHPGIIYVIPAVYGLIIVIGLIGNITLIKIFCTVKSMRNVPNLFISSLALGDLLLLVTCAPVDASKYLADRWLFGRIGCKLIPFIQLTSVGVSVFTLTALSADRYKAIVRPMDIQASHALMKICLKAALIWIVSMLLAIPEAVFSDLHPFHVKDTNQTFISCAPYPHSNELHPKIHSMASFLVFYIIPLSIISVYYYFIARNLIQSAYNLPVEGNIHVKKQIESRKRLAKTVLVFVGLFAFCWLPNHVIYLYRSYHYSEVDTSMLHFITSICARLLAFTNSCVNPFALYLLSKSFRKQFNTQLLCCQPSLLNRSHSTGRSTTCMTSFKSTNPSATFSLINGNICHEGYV
Outline: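 Rat pancreatic acini incubated 30 min at 37° C without additives or with somatostatin octapeptide analog, Bn, NMB or combinations. Amylase release expressed as percent of total cellular amylase released during incubation; for inhibition, somatostatin analog (10 μM) tested on 0.3 nM Bn-stimulated release.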

NMB receptor = target: T1, NMB receptor (Rattus norvegicus, UniProt P24053); experiment: [3H]inositol phosphates in NMB-R transfected cells (alone or NMB-stimulated); assay type: cell-based; parameters: a full length NMB-preferring bombesin receptor clone generated from rat esophagus; expressed in transfected cells; conditions: NMB-R transfected cells; for IC50 / effect at 10 μM on NMB-stimulated increase in [3H]IP: 3 nM NMB; for [3H]IP, analog Alone (10 μM): analog 10 μM alone, control 13 ± 3; for [3H]IP, analog Plus NMB (3 nM): analog 10 μM plus NMB 3 nM, NMB without analog 186 ± 58
T1 sequence (P24053 1-390): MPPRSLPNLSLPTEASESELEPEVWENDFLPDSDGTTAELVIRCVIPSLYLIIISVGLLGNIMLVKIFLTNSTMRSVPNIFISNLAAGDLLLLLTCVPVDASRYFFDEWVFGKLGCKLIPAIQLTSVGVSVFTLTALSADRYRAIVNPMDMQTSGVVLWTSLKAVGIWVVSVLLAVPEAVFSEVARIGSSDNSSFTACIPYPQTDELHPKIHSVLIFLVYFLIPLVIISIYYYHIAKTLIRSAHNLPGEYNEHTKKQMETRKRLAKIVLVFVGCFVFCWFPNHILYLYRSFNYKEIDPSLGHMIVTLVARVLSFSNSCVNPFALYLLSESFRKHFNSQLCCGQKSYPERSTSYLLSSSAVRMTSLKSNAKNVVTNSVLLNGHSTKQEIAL
Method: As described previously [Wada, E., et al. Neuron 6:421 (1991)], BALB 3T3 cells expressing a stably transfected rat NMB receptor (NMB-R transfected cells) were obtained using calcium phosphate precipitation of a full length NMB-preferring bombesin receptor clone generated from rat esophagus and subcloned into a modified version of the pCD2 plasmid. Cells were passaged every 3-4 days at confluence, using 0.1% trypsin in 1 mM EDTA. Rat glioblastoma C-6 tumor cells were maintained similarly and were passaged weekly at confluence. Both cell lines were cultured at 37° C. in a 5% CO2 atmosphere. Rat AR 42J pancreatic acinar cells were cultured in Dulbecco's modified Eagle's medium (DMEM) without antibiotics and supplemented with 10% (vol/vol) fetal calf serum. The incubation atmosphere consisted of 10% CO2 -90% humidified air at 37° C.
Measurement of phosphoinositides
Total phosphoinositides in C-6 cells and in NMB-R transfected cells were determined as described previously, with minor modifications [Benya, R. V. et al. Mol. Pharmacol. 42:1058 (1992); and Wang, L-H. et al. Biochem. Jo 286:641 (1992)]. Cells were grown to confluence in 24-well plates and then loaded with 100 μCi/ml myo-[2-^3 H]inositol in Dulbecco's modified essential medium with 2% fetal bovine serum at 37° C. for 48 hrs. Cells were washed and incubated in phosphoinositide buffer (standard buffer additionally containing 10 mM LiCl, 20 mM HEPES, 2 mM CaCl2, 2% BSA, and 1.2 mM MgSO4) for 15 min and then for 60 min at 37° C. with agonists at various concentrations or with 3 nM NMB (a half-maximal effective concentration) and possible antagonists at different concentrations. Reactions were halted using ice-cold 1% HCl in methanol, and the inositol phosphates (IP) were isolated as described previously [Bologna, M. et al. Cancer 63:1714 (1989); and Endo, T. et al. J. Endocrinolo 131:313 (1991)]. Briefly, after loading of the anion exchange column, free [^3 H]glycerophosphorylinositol was removed by washing with 5 mM disodium tetraborate in 60 mM sodium formate. Total [^3 H]inositol phosphates were then eluted using 100 mM formic acid in 1.0M ammonium formate as described previously [Benya, R. V. et al. Mol. Pharmacol. 42:1058 (1992); and Wang, L-H. et al. Biochem. J. 286:641 (1992 )].

[1] = target: T2, GRP receptors on rat pancreatic acini (Rattus norvegicus, UniProt P52500); experiment: Binding of 125I-[Tyr4]bombesin to pancreatic acini; conditions: read-out: Ki 125I-[Tyr4]Bn Binding, GRP Receptor, Rat Pancreatic Acini; Ki by Cheng method
T2 construct: from tissue; host or cells: dispersed pancreatic acini
T2 sequence (P52500 whole entry): as the sequence (P52500 whole entry) above
From the text: Nonsaturable binding was<10% of total binding in all experiments.

[2] = target: T3, NMB receptors on C-6 cells (Rattus norvegicus, UniProt P24053); experiment: Binding of 125I-[D-Tyr0]NMB to C-6 glioblastoma cells; conditions: Ki by Cheng method, read-out: Ki 125I-NMB Binding, NMB Receptor, C-6 Cells
T3 construct: endogenous in cells; host or cells: rat glioblastoma C-6 cells
T3 sequence (P24053 1-390): T1 sequence (P24053 1-390)
Method: Binding of ^125 I-[D-Tyr^0 ]NMB to C-6 glioblastoma and NMB-R transfected cells
Binding studies using rat glioblastoma C-6 or NMB-R transfected cells were performed as described previously [Benya, R. V. et al. Mol. Pharmacol. 42:1058 (1992); and Wang, L-H. et al. Biochem. J. 286:641 (1992)] by suspending disaggregated cells in binding buffer, which was composed of standing buffer ([…], 7.7 mM KCl, 1.0 mM EGTA, 0.02% soybean trypsin inhibitor) additionally containing 50 mM HEPES, 1 mM MgCl2, 1.5 mM CaCl2, 2.2 mM KH2 PO4, 0,015% glutamine, and 0.2% BSA (w/v) (pH 7.4). Incubations contained 75 pM ^125 I-[D-Tyr^0 ]NMB and 15×10^6 C-6 cells/ml or 2×10^6 NMB-R transfected cells/ml, for 60 min at 22° C. Nonsaturable binding of ^125 I-[D-Tyr^0 ]NMB was the amount of radioactivity associated with C-6 cells or NMB-R transfected cells when the incubation mixture contained […] NMB. Nonsaturable binding was<15% of total binding in all experiments; all values are reported herein as saturable binding (i.e., total minus nonsaturable binding).

somatostatin receptors = target: T4, somatostatin receptors (Rattus norvegicus, UniProt P30680); experiment: Somatostatin membrane receptor assay, 125I-[Tyr11]SS-14, AR 42J cell membranes; assay type: binding; conditions: Cheng method; table prints no unit (b360 gives nM for a Table 4 value); read-out: affinity, 125I-[Tyr11]SS-14, AR 42J Cell Membranes (somatostatin receptors)
T4 construct: endogenous in cells; host or cells: rat AR 42J pancreatic acinar tumor cell membranes
T4 sequence (P30680 whole entry): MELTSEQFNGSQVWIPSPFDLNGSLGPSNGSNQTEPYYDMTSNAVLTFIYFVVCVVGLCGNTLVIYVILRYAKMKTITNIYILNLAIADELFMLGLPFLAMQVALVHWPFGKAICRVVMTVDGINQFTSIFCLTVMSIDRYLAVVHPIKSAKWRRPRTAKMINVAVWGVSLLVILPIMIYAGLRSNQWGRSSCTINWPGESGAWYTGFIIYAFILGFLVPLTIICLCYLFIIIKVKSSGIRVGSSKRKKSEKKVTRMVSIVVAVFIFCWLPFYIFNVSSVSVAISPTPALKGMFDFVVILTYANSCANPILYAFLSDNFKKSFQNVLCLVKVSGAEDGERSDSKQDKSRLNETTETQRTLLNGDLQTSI

mu opioid receptors = target: T5, mu opioid receptors (Rattus norvegicus, UniProt P33535); experiment: Mu opioid membrane assay, [3H]DAGO, rat forebrain membranes; assay type: binding; conditions: Cheng method; unit inferred; read-out: affinity, [3H]DAGO, Rat Forebrain membranes (mu opioid receptors)
T5 construct: rat forebrain (TRH, mu and delta opioid membrane assays); from tissue; host or cells: rat forebrain membranes
T5 sequence (P33535 whole entry): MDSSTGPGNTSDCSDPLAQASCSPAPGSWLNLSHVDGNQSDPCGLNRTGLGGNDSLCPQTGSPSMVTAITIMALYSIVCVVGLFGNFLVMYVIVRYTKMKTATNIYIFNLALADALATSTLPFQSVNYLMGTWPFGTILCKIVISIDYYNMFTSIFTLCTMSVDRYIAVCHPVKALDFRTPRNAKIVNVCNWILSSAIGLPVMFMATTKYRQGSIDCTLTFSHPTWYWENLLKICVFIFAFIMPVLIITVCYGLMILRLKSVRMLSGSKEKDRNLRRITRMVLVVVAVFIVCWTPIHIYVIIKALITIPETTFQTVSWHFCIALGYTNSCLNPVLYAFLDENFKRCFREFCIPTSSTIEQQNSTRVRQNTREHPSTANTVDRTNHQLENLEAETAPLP

[3] = read-out: IC50 NMB-stimulated [3H]IP, NMB Receptor, Transfected Cells
[4] = read-out: IC50 NMB-stimulated [3H]IP, Transfected Cells (values in μM)

NCCCC[C@@H]1NC(=O)[C@@H](Cc2c[nH]c3ccccc23)NC(=O)[C@H](Cc2ccc(O)cc2)NC(=O)[C@@H](NC(=O)[C@H](N)Cc2ccc3ccccc3c2)CSSC[C@@H](C(=O)N[C@@H](Cc2ccc3ccccc3c2)C(N)=O)NC(=O)[C@H](Cc2ccccc2)NC1=O [Analog #13, H2 -D-Nal-Cys-Tyr-D-Trp-Lys-Phe-Cys-Nal-NH2] (H-[d2Nal]CY[dW]KFC[2Nal]-NH2; disulfide 2-7)
Amylase Release, analog Alone (10 μM) (GRP receptor): 3 ± 1 % total | Amylase Release, analog Plus Bn (0.3 nM) (GRP receptor): 14 ± 1 % total | IC50 (GRP receptor): > 10000 nM | IC50 (NMB receptor; [3]): 1.17 ± 0.114 µM | IC50 (NMB receptor; [4]): 1.2 to 1.8 µM | effect at 10 μM on NMB-stimulated increase in [3H]IP (NMB receptor): completely inhibited | [3H]IP, analog Alone (10 μM) (NMB receptor): 10 ± 1 dym × 10^3 | [3H]IP, analog Plus NMB (3 nM) (NMB receptor): 9 ± 4 dym × 10^3 | Ki [1]: > 10000 nM | Ki [2]: 213 ± 13 nM | Ki (somatostatin receptors): 194 ± 27 nM | Ki (mu opioid receptors): 1640 nM

CC(C)[C@@H]1NC(=O)[C@H](Cc2c[nH]cn2)NC(=O)[C@@H](Cc2c[nH]c3ccccc23)NC(=O)[C@H](Cc2ccc(O)cc2)NC(=O)[C@@H](NC(=O)[C@H](N)Cc2ccc3ccccc3c2)CSSC[C@@H](C(=O)N[C@@H](Cc2ccc3ccccc3c2)C(N)=O)NC1=O [Analog #14] (H-[d2Nal]CY[dW]HVC[2Nal]-NH2; disulfide 2-7; N-terminus assumed)
Amylase Release, analog Alone (10 μM) (GRP receptor): 2 ± 1 % total | Amylase Release, analog Plus Bn (0.3 nM) (GRP receptor): 13 ± 1 % total | IC50 (GRP receptor): > 10000 nM | IC50 (NMB receptor; [3]): 11.9 ± 1.83 µM | [3H]IP, analog Alone (10 μM) (NMB receptor): 8 ± 1 dym × 10^3 | [3H]IP, analog Plus NMB (3 nM) (NMB receptor): 97 ± 7 dym × 10^3 | Ki [1]: > 10000 nM | Ki [2]: 4940 ± 930 nM | Ki (somatostatin receptors): 1870 ± 30 nM | Ki (mu opioid receptors): 500 nM

CC(C)[C@@H]1NC(=O)[C@H](CCCCN)NC(=O)[C@@H](Cc2ccc3ccccc3c2)NC(=O)[C@H](Cc2ccc(O)cc2)NC(=O)[C@@H](NC(=O)[C@H](N)Cc2ccc3ccccc3c2)CSSC[C@@H](C(=O)N[C@@H](Cc2ccc3ccccc3c2)C(N)=O)NC1=O [Analog #17, H2 -D-Nal-Cys-Tyr-D-Nal-Lys-Val-Cys-Nal-NH2] (H-[d2Nal]CY[d2Nal]KVC[2Nal]-NH2; disulfide 2-7)
Amylase Release, analog Alone (10 μM) (GRP receptor): 4 ± 2 % total | Amylase Release, analog Plus Bn (0.3 nM) (GRP receptor): 19 ± 1 % total | IC50 (GRP receptor): > 10000 nM | IC50 (NMB receptor; [3]): 1.78 ± 0.295 µM | IC50 (NMB receptor; [4]): 1.2 to 1.8 µM | effect at 10 μM on NMB-stimulated increase in [3H]IP (NMB receptor): completely inhibited | [3H]IP, analog Alone (10 μM) (NMB receptor): 12 ± 4 dym × 10^3 | [3H]IP, analog Plus NMB (3 nM) (NMB receptor): 15 ± 2 dym × 10^3 | Ki [1]: > 10000 nM | Ki [2]: 313 ± 33 nM | Ki (somatostatin receptors): 570 ± 180 nM | Ki (mu opioid receptors): 1570 nM

Source: patent US5462926A (Biomeasure, Inc., priority 1993, dated 1995)
